# Data: patent US5962524A, “Depigmenting composition” (Caster, priority 1997, dated 1999)
# Key:
# [1] = test system: tail pigmentation of black mice; experiment: Depigmenting power in vivo on the tails of black mice (lightness parameter L*); details: concentration ten times as great increases the efficacy by a factor of two
# Protocol: L 908/1). Composition 1: gel containing 99.0% of liposomes containing a 0.5% dose of diethyl acetone-α,α'-dioxalate Composition 2: emulsion containing 10.0% of liposomes containing a 0.5% dose of diethyl acetone-α,α'-dioxalate Reference product: composition containing 2% hydroquinone Each composition is applied daily for 28 days to the tail of four black mice. For each mouse, the lightness parameter L* is measured on day D0, D15 and D28 using a chromameter.
# tyrosinase [2] = experiment: Inhibition of the L-DOPA-tyrosinase reaction, revealed by thin layer chromatography; assay type: biochemical; details: 10 μl of a 1% solution in ethanol on silica gel plate; L-DOPA 1 M, tyrosinase 238 IU/ml
# Protocol: 10 μl of a 1% solution of diethyl acetone-α,α'-dioxalate in ethanol (at 96%) is deposited onto G60 silica gel plates. The migration solvent is a butanol/water/acetic acid mixture (4/1/1, v/v/v) which is migrated to a height of 10 cm. After drying, an L-DOPA solution (1 M) is sprayed over the entire plate, followed by a tyrosinase solution (238 IU/ml). […] This white spot is due to the absence of tyrosinase activity converting the L-DOPA substrate into dopaquinone, the molecule which spontaneously converts into a brown pigment (brown background) in the presence of light.
# [3] = Oral toxicity in rats (LD50); details: rat, in vivo, administered orally to rats, read-out: 50% lethal dose (LD50)
# Protocol: The evaluation of the toxicity of the active principle of the present invention, administered orally to rats, gives 50% lethal dose values (LD50) of greater than 2000 mg/kg. Diethyl acetone-α,α'-dioxalate is thus not classed as a risk product.
# [4] = test system: tyrosinase in melanocytes of human skin explants; experiment: Depigmenting power in vitro on skin explants (histological evaluation of melanocyte coloration); assay type: cell-based; details: for tyrosinase activity: 15 hours at 37° C., 0.005 M L-DOPA
# Protocol: The inhibitory activity of diethyl acetone-α,α'-dioxalate on tyrisonase in melanocytes was evaluated by a histological study on skin explants.
# After thawing and fixing for 30 minutes in 10% (w/v) formaldehyde solution, human skin explants obtained from an abdominoplasty are incubated for 15 hours at 37° C. in the presence of 0.005 M of L-DOPA and of the test products.
# The diethyl acetone-α,α'-dioxalate is used at concentrations of 0.5%, 1% and 2% (w/v) in a 10% (v/v) solution of DMSO in water.
# Control explants incubated only in the presence of 0.005 M of L-DOPA are prepared in parallel.
# For the histological examination, 4 μm thick slices are taken from explants included in paraffin and the slices are stained with cresyl violet.
# Optical microscopy photographs in white light allow a visual evaluation of the coloration of the melanocytes reflecting the tyrosinase activity.
# tyrosinase [5] = experiment: Inhibition of the tyrosine-tyrosinase reaction, spectrophotometric assay of melanin (absorbance at 477 nm); assay type: biochemical
# Protocol: This is a spectrophotometric assay (absorbance at 477 nm) of the melanin produced in vitro by tyrosinase from the tyrosine substrate. […] 2.0 ml of bis Tris buffer (0.1 M, pH 6.5) and 5.0 ml of tyrosine stock solution are added to 0 ml, 1.2 ml, 2.0 ml and 2.5 ml of tyrosinase solution and the mixtures are each completed with water to a total volume of 10.0 ml. These mixtures are incubated for 1 hour and 30 minutes at 37° C. on a water bath and are then rapidly cooled to 4° C. Measurement of the absorbance of the solutions at λ=477 nm relative to a solution free of tyrosinase makes it possible to plot a calibration curve characterized by the curve equation y=0.813×+1.27×10^-3 and by a correlation coefficient equal to 0.999. The following solutions are then prepared: Control solution (100% tyrosinase activity): Solution to be ascertained: These two solutions are incubated for 1 hour 30 minutes on a water bath at 37° C. The solutions are rapidly cooled to 4° C. and the absorbance at 477 nm is then read, taking a blank free of tyrosinase as reference.
Structure (SMILES),dose dependence of depigmenting efficacy [1],inhibition of the DOPA-tyrosinase reaction (white band on brown background) (tyrosinase [2]),LD50 [3] [mg/kg],tyrosinase activity ([4]; 0.5% (w/v) in 10% DMSO),tyrosinase activity ([4]; 1.0% (w/v) in 10% DMSO),tyrosinase activity ([4]; 2.0% (w/v) in 10% DMSO),"inhibition of the tyrosinase activity in skin explants ([4]; tested at 0.5%, 1.0% and 2%)",in vitro production of melanin by tyrosinase from L-tyrosine (tyrosinase [5]; 2.58% solution in alcohol),"Absorbance at 477 nm solution to be assayed, mean (tyrosinase [5]; mean of five tests, 2.0 ml of 2.58% solution in alcohol, 1 h 30 min at 37° C., control mean ≈1.16)","Absorbance at 477 nm solution to be assayed (tyrosinase [5]; single tests 1-5, 2.0 ml of 2.58% solution in alcohol, 1 h 30 min at 37° C., control solution 1.16-1.23)",tyrosinase activity ([4]; 1.1% (w/v) in 10% DMSO)
"CCOC(=O)C(O)=CC(=O)C=C(O)C(=O)OCC [diethyl acetone-α,α'-dioxalate]",acts in a dose-dependent manner,effectively inhibits the DOPA-tyrosinase reaction,> 2000,0,0,0,totally inhibits the tyrosinase activity,effectively inhibits the in vitro production of melanin,≈ 0,≈ 0,
"Oc1ccc(O)cc1 [hydroquinone, reference compound]",,,,,,,,,,,0
